The values below come from US20120270237A9, “METHODS FOR THE IDENTIFICATION OF KINASE INTERACTING MOLECULES AND FOR THE PURIFICATION OF KINASE PROTEINS” (Cellzone AG, priority 2009, published 2012).

Holding throughout (assay): Kinobeads competition binding, HL60 cell lysate
Common to all, as to set-up: endogenous in cells; host or cells: HL60
Conditions in all cases: 10 μM free compound

The target of experiment [1] is MPSK1 (Homo sapiens, UniProt O75716). As for the experimental part: (§1) To one aliquot of cell lysate 10 μM of the free compound (FIG. 3, CZC31326) was added and allowed to bind to proteins in the lysate. Then the affinity matrix with the immobilized compound (Example 1) was added to capture proteins that were not interacting with the previously added free compound. Beads were separated from the lysate and bead bound proteins were eluted in SDS sample buffer and subsequently separated by SDS-Polyacrylamide gel electrophoresis (FIG. 4). Suitable gel bands were cut out and subjected to in-gel proteolytic digestion with trypsin. The second lysate aliquot was processed identically, however no free compound was added (DMSO solvent control). Peptides originating from samples 1 and 2 were labeled with iTRAQ reagents (iTRAQ 114 and iTRAQ 117) and the combined samples were analyzed with a nano-flow liquid chromatography system coupled online to a tandem mass spectrometer (LC-MS/MS) experiment followed by iTRAQ reporter ion quantification in the MS/MS spectra (Ross et al., 2004. Mol. Cell. Proteomics 3(12):1154-1169). Further experimental protocols can be found in WO2006/134056 and a previous publication (Bantscheff et al., 2007. Nature Biotechnology 25, 1035-1044). Sepharose-beads with the immobilized compound (100 μl beads per pull-down experiment) were equilibrated in lysis buffer and incubated with a cell lysate sample containing 50 mg of protein on an end-over-end shaker (Roto Shake Genie, Scientific Industries Inc.) for 2 hours at 4° C. Beads were collected, transferred to Mobicol-columns (MoBiTech 10055) and washed with 10 ml lysis buffer containing 0.4% NP40 detergent, followed by 5 ml lysis buffer containing 0.2% detergent. To elute bound proteins, 60 μl 2×SDS sample buffer was added to the column. The column was incubated for 30 minutes at 50° C. and the eluate was transferred to a siliconized microfuge tube by centrifugation. Proteins were then alkylated with 108 mM iodoacetamid. Proteins were then separated by SDS-Polyacrylamide electrophoresis (SDS-PAGE). The peptide extracts of samples treated with 10 μM of free compound (CZC31326) and the solvent control (0.5% DMSO) were treated with different variants of the isobaric tagging reagent (iTRAQ Reagents Multiplex Kit, part number 4352135, Applied Biosystems, Foster City, Calif., USA). The iTRAQ reagents are a set of multiplexed, amine-specific, stable isotope reagents that can label peptides on amino groups in up to four different biological samples enabling simultaneous identification and quantitation of peptides. The iTRAQ reagents were used according to instructions provided by the manufacturer. The samples were resuspended in 10 μl 50 mM TEAB solution, pH 8.5 and 10 μl ethanol were added. The iTRAQ reagent was dissolved in 120 μl ethanol and 10 μl of reagent solution were added to the sample. The labeling reaction was performed at room temperature for one hour on a horizontal shaker and stopped by adding 5 μl of 100 mM TEAB and 100 mM glycine in water. The two labeled sampled were then combined, dried in a vacuum centrifuge and resuspended in 10 μl of 0.1% formic acid in water. Relative protein quantitation was performed using peak areas of iTRAQ reporter ion signals essentially as described in an earlier publication (Bantscheff et al., 2007. Nature Biotechnology 25, 1035-1044).
Chain of MPSK1 (O75716 whole entry): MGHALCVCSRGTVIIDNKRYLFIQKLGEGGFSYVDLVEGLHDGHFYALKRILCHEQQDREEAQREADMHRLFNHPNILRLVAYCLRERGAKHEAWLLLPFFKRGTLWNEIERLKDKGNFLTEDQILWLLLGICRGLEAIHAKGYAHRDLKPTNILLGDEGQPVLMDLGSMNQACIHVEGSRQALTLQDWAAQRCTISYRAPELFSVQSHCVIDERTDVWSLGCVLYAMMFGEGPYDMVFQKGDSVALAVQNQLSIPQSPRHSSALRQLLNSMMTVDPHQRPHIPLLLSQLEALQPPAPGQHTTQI

For experiment [2], the target named is T1, IRAK4 (Homo sapiens, UniProt Q9NWZ3).
T1 sequence (Q9NWZ3 1-460): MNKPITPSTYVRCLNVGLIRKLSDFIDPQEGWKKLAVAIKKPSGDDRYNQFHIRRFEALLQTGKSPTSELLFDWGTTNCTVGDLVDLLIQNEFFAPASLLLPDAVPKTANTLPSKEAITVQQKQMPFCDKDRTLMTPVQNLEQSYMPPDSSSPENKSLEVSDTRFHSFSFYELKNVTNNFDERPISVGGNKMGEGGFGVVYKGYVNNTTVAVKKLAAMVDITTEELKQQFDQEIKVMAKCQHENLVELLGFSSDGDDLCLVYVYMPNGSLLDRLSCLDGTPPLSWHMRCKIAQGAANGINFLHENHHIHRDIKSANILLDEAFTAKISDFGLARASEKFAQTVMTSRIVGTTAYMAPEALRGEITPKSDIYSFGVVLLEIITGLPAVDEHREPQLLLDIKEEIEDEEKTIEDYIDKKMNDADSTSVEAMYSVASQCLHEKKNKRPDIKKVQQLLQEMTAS
As for the experimental part:
as §1

For experiment [3], the target named is IRAK3 (Homo sapiens, UniProt Q9Y616). As for the experimental part:
as §1

Experiment [4] deals with GSK3B (Homo sapiens, UniProt P49841). As for the experimental part:
as §1

In experiment [5] the target is T2, TAO3 (Homo sapiens, UniProt Q9H2K8).
T2 sequence (Q9H2K8 1-898): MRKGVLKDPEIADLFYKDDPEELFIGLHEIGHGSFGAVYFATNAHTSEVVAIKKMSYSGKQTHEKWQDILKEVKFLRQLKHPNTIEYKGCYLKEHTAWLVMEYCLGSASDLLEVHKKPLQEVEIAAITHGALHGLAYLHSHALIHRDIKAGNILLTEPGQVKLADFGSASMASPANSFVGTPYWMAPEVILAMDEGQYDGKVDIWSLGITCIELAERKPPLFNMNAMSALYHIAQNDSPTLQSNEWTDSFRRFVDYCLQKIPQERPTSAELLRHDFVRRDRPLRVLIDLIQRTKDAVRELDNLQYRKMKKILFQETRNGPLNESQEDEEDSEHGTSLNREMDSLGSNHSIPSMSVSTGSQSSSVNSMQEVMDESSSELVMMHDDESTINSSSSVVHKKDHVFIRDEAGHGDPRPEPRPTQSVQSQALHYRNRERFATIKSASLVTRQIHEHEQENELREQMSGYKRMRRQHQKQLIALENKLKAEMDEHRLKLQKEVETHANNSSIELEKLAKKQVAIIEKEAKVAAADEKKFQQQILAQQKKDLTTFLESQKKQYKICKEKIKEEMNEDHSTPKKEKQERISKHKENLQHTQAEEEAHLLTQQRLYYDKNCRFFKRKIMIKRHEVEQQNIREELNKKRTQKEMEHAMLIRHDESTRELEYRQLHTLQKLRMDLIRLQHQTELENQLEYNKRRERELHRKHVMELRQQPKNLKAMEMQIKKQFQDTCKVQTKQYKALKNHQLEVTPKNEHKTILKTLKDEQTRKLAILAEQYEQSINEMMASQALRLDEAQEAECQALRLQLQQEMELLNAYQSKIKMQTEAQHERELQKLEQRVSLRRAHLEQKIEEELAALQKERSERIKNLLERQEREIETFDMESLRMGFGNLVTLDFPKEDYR
As for the experimental part: as §1

The structures appear in SMILES notation.

Chain of GSK3B (P49841 whole entry): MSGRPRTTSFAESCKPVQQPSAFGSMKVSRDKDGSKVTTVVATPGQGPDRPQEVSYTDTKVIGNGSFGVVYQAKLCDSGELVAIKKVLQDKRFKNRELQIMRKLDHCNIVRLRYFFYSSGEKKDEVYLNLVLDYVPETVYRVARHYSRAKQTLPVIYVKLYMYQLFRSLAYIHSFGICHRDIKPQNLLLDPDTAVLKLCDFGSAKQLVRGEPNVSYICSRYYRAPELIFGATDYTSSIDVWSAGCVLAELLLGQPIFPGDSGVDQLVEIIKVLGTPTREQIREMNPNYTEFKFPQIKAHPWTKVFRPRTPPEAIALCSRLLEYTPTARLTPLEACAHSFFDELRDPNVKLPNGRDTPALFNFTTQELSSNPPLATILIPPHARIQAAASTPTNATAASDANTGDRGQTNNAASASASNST
Chain of IRAK3 (Q9Y616 whole entry): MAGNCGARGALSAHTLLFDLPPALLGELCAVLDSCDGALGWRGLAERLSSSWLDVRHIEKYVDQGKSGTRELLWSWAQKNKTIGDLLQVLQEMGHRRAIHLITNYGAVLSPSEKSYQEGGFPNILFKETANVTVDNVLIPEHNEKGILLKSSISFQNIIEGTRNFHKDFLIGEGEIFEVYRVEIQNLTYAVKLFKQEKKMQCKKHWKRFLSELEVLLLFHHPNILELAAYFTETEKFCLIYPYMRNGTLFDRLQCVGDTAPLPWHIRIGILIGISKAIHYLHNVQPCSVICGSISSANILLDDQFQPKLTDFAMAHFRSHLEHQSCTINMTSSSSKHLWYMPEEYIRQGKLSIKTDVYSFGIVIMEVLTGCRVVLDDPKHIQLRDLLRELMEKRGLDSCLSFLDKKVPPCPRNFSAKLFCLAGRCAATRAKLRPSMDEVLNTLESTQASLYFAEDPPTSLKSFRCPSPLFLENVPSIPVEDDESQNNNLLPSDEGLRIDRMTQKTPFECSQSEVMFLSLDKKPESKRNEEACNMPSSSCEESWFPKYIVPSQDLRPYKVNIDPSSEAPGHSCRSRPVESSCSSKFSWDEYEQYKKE

Regarding `CS(=O)(=O)Nc1ccccc1Nc1nc(Nc2cccc(OCCN)c2)ncc1Cl` [CZC31326, N-(2-(2-(3-(2-aminoethoxy)phenylamino)-5-chloropyrimidin-4-ylamino)phenyl)methanesulfonamide], the inhibition (usually the drop in the measured response relative to a control, in per cent) at 10 µM in experiment [1] is 93.4%; in experiment [3] it was 97.2%; in experiment [4] it was 96.1%; in experiment [5], 98%. Also, in experiment [2], the Competition % is given as 97.5%.
